# Measurements from patent US7833513B2, “Treatment of Alzheimer's Disease” (Rhode Island Hospital, priority 2004, dated 2010).
# Experiments:
# Assay type in all cases: in vivo, Long Evans rat
# [1] = ic-STZ rat pup model: blood glucose, body and brain weight, pancreas and brain histopathology
# Experimental: Control rats were identically injected with sterile saline. […] Andican et al., Clin. Exp. Pharmacol. Physiol. 32:663 (2005); Saad et al., Arch. Toxicol. (2005); Srinivasan et al., Pharmacol. Res. 52:313 (2005); Karabatas et al., Pancreas 30:318 (2005); Mabley et al., Pancreas 28:E39 (2004). […] The injections were completed within 3 minutes and the needle was withdrawn slowly from the brain.
# At the termination point of the experiment, the rats were weighed and then sacrificed by isofluorane inhalation. Blood was obtained by cardiac puncture to measure glucose concentration using the OneTouch Ultra Blood Glucose Meter (Lifescan, Inc). The pancreases were harvested and immersion fixed in Histofix (Amresco Corp, Solon, Ohio) for paraffin embedding. Fresh brains were weighed and then cut in the coronal plane to obtain a ˜3 mm thick slice that flanked the infundibulum. The 3-mm brain slice was snap frozen between two slabs of dry ice, and stored at −80° C. for later RNA and protein extractions. The residual tissue was immersion fixed (Histofix) and embedded in paraffin for histopathological study and immunohistochemical staining. In approximately 20% of the cases, the brains were weighed, immersion fixed whole, and then sectioned in the coronal plane along standardized landmarks for paraffin embedding and histopathological sectioning.
# Paraffin-embedded histological sections of pancreas (5 μm thick) and brain (8 μm thick) were stained with hematoxylin and eosin (H&E) and examined for histopathological lesions, i.e., inflammation, necrosis, and islet cell degeneration. […] As negative controls for the immunostaining reactions, either the primary antibody was omitted or non-relevant monoclonal antibody to Hepatitis B virus was used in place of the relevant antibody.
# Prior to immunostaining, the deparaffinized, re-hydrated tissue sections were sequentially treated with 0.1 mg/ml saponin in phosphate buffered saline (10 mM sodium phosphate, 0.9% NaCl, pH 7.4; PBS), for 20 minutes at room temperature. […] After overnight incubation at 4° C. with antibodies diluted to 0.1-1 μg/ml (according to the manufacturer's recommendations), immunoreactivity was detected using rat tissue-pre-adsorbed biotinylated secondary antibodies, avidin biotin horseradish peroxidase complex (ABC) reagents, and diaminobenzidine as the chromogen (Vector Laboratories, Burlingame, Calif.). de la Monte et al., Lab. Invest. 80:1323 (2000). The sections were counterstained with hematoxylin and preserved with mounting medium and coverglass. All sections were examined under code.
# insulin receptor = conditions: temporal lobe membrane extracts
# Experimental: (§1) Membrane proteins were extracted from fresh frozen temporal lobe tissue (˜100 mg) by Polytron (Glen Mils Inc., Clifton, N.J.) homogenization in 5 volumes of NP-40 lysis buffer (50 mM Tris-HCl, pH 7.5, 150 mM NaCl, 1 mM EDTA, 2 mM EGTA, 1% NP-40) containing protease (1 mM PMSF, 0.1 mM TPCK, 1 μg/ml aprotinin, 1 μg/ml pepstatin A, 0.5 μg/ml leupeptin, 1 mM NaF, 1 mM Na4P2O7) and phosphatase (2 mM Na3VO4) inhibitors. The supernatant fractions obtained after centrifuging the samples at 10,000×g for 15 minutes at 4° C. were used in the binding assays. […] Protein concentrations were measured with the bicinchoninic acid (BCA) assay (Pierce, Rockford, Ill.).
# (§2) Competitive equilibrium binding assays were used to assess growth factor binding in relation to ic-STZ-treatment. […]
# (§3) All reactions were performed in 1.5 ml Eppendorff tubes, and the incubations were performed at 4° C. for 16 hours with gentle platform agitation. […] Each sample was counted for 1 minute in an LKB CompuGamma CS Gamma counter. Specific binding was calculated by subtracting fmols of non-specific binding, i.e. amount bound in the presence of excess cold ligand, from total fmols bound (absence of unlabeled competitive ligand). The binding assay results were analyzed using the GraphPad Prism 4 software (GraphPad Software, Inc., San Diego, Calif.).
# IGF-II receptor = conditions: temporal lobe membrane extracts
# Experimental: as §1, §2, §3
# [2] = test system: brain immunoreactivity (p53, GFAP, phospho-tau, ubiquitin, Aβ, ChAT, AChE); assay: ic-STZ model: immunohistochemical staining of brain
# Source text: Paraffin-embedded histological sections of pancreas (5 μm thick) and brain (8 μm thick) were stained with hematoxylin and eosin (H&E) and examined for histopathological lesions, i.e., inflammation, necrosis, and islet cell degeneration. […] Paraffin sections of brain were immunostained with monoclonal or polyclonal antibodies to phospho-tau, Aβ, p53, ubiquitin, glial fibrillary acidic protein (GFAP), choline acetyltransferase (ChAT), and acetylcholinesterase (AChE) to characterize the nature of ic-STZ-induced AD-type neurodegeneration. As negative controls for the immunostaining reactions, either the primary antibody was omitted or non-relevant monoclonal antibody to Hepatitis B virus was used in place of the relevant antibody.
# Prior to immunostaining, the deparaffinized, re-hydrated tissue sections were sequentially treated with 0.1 mg/ml saponin in phosphate buffered saline (10 mM sodium phosphate, 0.9% NaCl, pH 7.4; PBS), for 20 minutes at room temperature. Endogenous peroxidase activity was quenched by treating the tissue sections with 3% hydrogen peroxide in methanol for 10 minutes, and non-specific binding sites were blocked by a 30-minute incubation in SuperBlock-TBS (Pierce Chemical Co., Rockford, Ill.) at room temperature. After overnight incubation at 4° C. with antibodies diluted to 0.1-1 μg/ml (according to the manufacturer's recommendations), immunoreactivity was detected using rat tissue-pre-adsorbed biotinylated secondary antibodies, avidin biotin horseradish peroxidase complex (ABC) reagents, and diaminobenzidine as the chromogen (Vector Laboratories, Burlingame, Calif.). de la Monte et al., Lab. Invest. 80:1323 (2000). The sections were counterstained with hematoxylin and preserved with mounting medium and coverglass. All sections were examined under code.
# [3] = temporal cortex, hippocampus, hypothalamus/thalamus, cerebellar cortex
smiles,measurement,setting,value
CN(N=O)C(=O)NC1C(O)OC(CO)C(O)C1O (stereo not shown) [STZ],hemorrhage in brain,[1]; 40 mg/kg ic-STZ,multiple small foci of acute subarachnoid hemorrhage
same,insulin immunoreactivity in pancreatic islets,[1]; 40 mg/kg ic-STZ,prominent insulin immunoreactivity in all pancreatic islets
same,pancreas histopathology,[1]; 40 mg/kg ic-STZ,"no evidence of inflammation, necrosis, or islet cell degeneration"
same,size of cerebral and cerebellar hemispheres,[1]; 40 mg/kg ic-STZ,conspicuously reduced in size
same,mean blood glucose level vs control,"[1]; 40 mg/kg ic-STZ, day 14",significantly lower than control
same,mean body weight vs control,"[1]; 40 mg/kg ic-STZ, day 14",significantly reduced
same,mean brain weight vs control,"[1]; 40 mg/kg ic-STZ, day 14",significantly reduced relative to control
same,random blood glucose concentration (none of the rats above),"[1]; 40 mg/kg ic-STZ, day 14",≤ 180 mg/dL
same,survival of the injections,"[1]; 3-day-old pups, bilateral ic injection",All animals survived
same,reduction of mean equilibrium binding to the insulin receptor vs control,insulin receptor,approximately 85%
same,IGF-II binding vs control,IGF-II receptor,significantly reduced
same,p53 immunoreactivity in brain,[2]; 14- and 21-day post-treatment,only slightly increased relative to control
same,p53 immunoreactivity in brain,[2]; Day 7 post-treatment,prominently increased
same,Aβ immunoreactivity,"[2]; neurons, vessels, plaque-like deposits",increased
same,AChE immunoreactivity,"[2]; rat, in vivo",increased
same,ChAT immunoreactivity,"[2]; rat, in vivo",decreased
same,GFAP immunoreactivity,"[2]; rat, in vivo",globally increased
same,phospho-tau immunoreactivity,[2]; [3],increased
same,ubiquitin immunoreactivity,[2]; [3],increased
